The record followed here is US5824315A, “Binding affinity of antigenic peptides for MHC molecules” (Anergen, Inc., priority 1996, dated 1998).

In this test the test system is HLA-DR2. Conditions: pH 6.

Procedure: In order to compare the binding of various MBP peptides to DR2, purified DR2 at a concentration of 20 μg/ml was incubated with 50-fold molar excess of Bt-MBP peptides for 72 hours at varying pH, ranging from pH 5-10 binding buffer at 37° C. […] Monoclonal antibody against HLA-DR2 at a concentration of 20 μg/ml and BSA-biotin (with 0.014-1.80 pmoles (0.117-15 ng), were coated in 96-well microtiter plates (Nunc poly-Sorb, Baxter) overnight at 4° C. Plates were blocked with 1% fish gelatin. Prepared HLA-DR2-biotin peptide complexes were applied to the wells in duplicates ranging from 12.5 ng-200 ng (0.21-3.32 pmoles) in appropriate dilution buffers and incubated for 2 hours at room temperature. The wells were washed three times with PBS containing 0.01% Tween-20 to remove unbound peptide. Bound biotinylated peptides were detected colorimetrically using alkaline phosphatase conjugated streptavidin and p-nitrophenyl phosphate (disodium) in 0.1M diethnolamine as a substrate. Wells were read at 405 nm in microliter plate reader (Molecular Devices). The percent of DR2 with bound peptide was calculated using standard BSA-biotin (eight biotin molecules per BSA). Purified HLA-DR2 used in this study contains a mixture of DRB5*0101 and DRB1*1501 beta chains.
In the first experiment, the binding of MBP(84-102) peptide to purified DR2 was compared with MBP(83-102)Y83 peptide at various pH.

Consider `CC[C@H](C)[C@H](NC(=O)[C@H](CC(N)=O)NC(=O)[C@H](CCCCN)NC(=O)[C@H](Cc1ccccc1)NC(=O)[C@H](Cc1ccccc1)NC(=O)[C@H](Cc1c[nH]cn1)NC(=O)[C@@H](NC(=O)[C@@H](NC(=O)[C@@H]1CCCN1C(=O)[C@H](CC(N)=O)NC(=O)[C@H](CCC(=O)O)NC(=O)[C@H](CC(=O)O)NC(=O)[C@H](C)NC(=O)CCCC[C@@H]1SC[C@@H]2NC(=O)N[C@@H]21)C(C)C)C(C)C)C(=O)N[C@H](C(=O)N[C@H](C(=O)N1CCC[C@H]1C(=O)N[C@@H](CCCNC(=N)N)C(=O)N[C@H](C(=O)N1CCC[C@H]1C(=O)N1CCC[C@H]1C(N)=O)[C@@H](C)O)[C@@H](C)O)C(C)C` [MBP(83-102)A83, Bt-ADENPVVHFF KNIVTPRTPP-NH2], for which the “percent of DR2 occupied with bound peptide” value (from here on “percent … with bound peptide”) was 100%.

Take `CC[C@H](C)[C@H](NC(=O)[C@H](CC(N)=O)NC(=O)[C@H](CCCCN)NC(=O)[C@H](Cc1ccccc1)NC(=O)[C@H](Cc1ccccc1)NC(=O)[C@H](Cc1c[nH]cn1)NC(=O)[C@@H](NC(=O)[C@@H](NC(=O)[C@@H]1CCCN1C(=O)[C@H](CC(N)=O)NC(=O)[C@H](CCC(=O)O)NC(=O)[C@H](CC(=O)O)NC(=O)[C@H](CCC(N)=O)NC(=O)CCCC[C@@H]1SC[C@@H]2NC(=O)N[C@@H]21)C(C)C)C(C)C)C(=O)N[C@H](C(=O)N[C@H](C(=O)N1CCC[C@H]1C(=O)N[C@@H](CCCNC(=N)N)C(=O)N[C@H](C(=O)N1CCC[C@H]1C(=O)N1CCC[C@H]1C(N)=O)[C@@H](C)O)[C@@H](C)O)C(C)C` [MBP(83-102)Q83, Bt-QDENPVVHFF KNIVTPRTPP-NH2]: the “percent … with bound peptide” value is 40%.

Turning to `CC[C@H](C)[C@H](NC(=O)[C@H](CC(N)=O)NC(=O)[C@H](CCCCN)NC(=O)[C@H](Cc1ccccc1)NC(=O)[C@H](Cc1ccccc1)NC(=O)[C@H](Cc1c[nH]cn1)NC(=O)[C@@H](NC(=O)[C@@H](NC(=O)[C@@H]1CCCN1C(=O)[C@H](CC(N)=O)NC(=O)[C@H](CCC(=O)O)NC(=O)[C@H](CC(=O)O)NC(=O)[C@H](Cc1ccccc1)NC(=O)CCCC[C@@H]1SC[C@@H]2NC(=O)N[C@@H]21)C(C)C)C(C)C)C(=O)N[C@H](C(=O)N[C@H](C(=O)N1CCC[C@H]1C(=O)N[C@@H](CCCNC(=N)N)C(=O)N[C@H](C(=O)N1CCC[C@H]1C(=O)N1CCC[C@H]1C(N)=O)[C@@H](C)O)[C@@H](C)O)C(C)C` [MBP(83-102)F83, Bt-FDENPVVHFF KNIVTPRTPP-NH2], the “percent … with bound peptide” value was determined as 12%.

In the case of `CC[C@H](C)[C@H](NC(=O)[C@H](CC(N)=O)NC(=O)[C@H](CCCCN)NC(=O)[C@H](Cc1ccccc1)NC(=O)[C@H](Cc1ccccc1)NC(=O)[C@H](Cc1c[nH]cn1)NC(=O)[C@@H](NC(=O)[C@@H](NC(=O)[C@@H]1CCCN1C(=O)[C@H](CC(N)=O)NC(=O)[C@H](CCC(=O)O)NC(=O)[C@H](CC(=O)O)NC(=O)[C@H](CC(=O)O)NC(=O)CCCC[C@@H]1SC[C@@H]2NC(=O)N[C@@H]21)C(C)C)C(C)C)C(=O)N[C@H](C(=O)N[C@H](C(=O)N1CCC[C@H]1C(=O)N[C@@H](CCCNC(=N)N)C(=O)N[C@H](C(=O)N1CCC[C@H]1C(=O)N1CCC[C@H]1C(N)=O)[C@@H](C)O)[C@@H](C)O)C(C)C` [MBP(83-102)D83, Bt-DDENPVVHFF KNIVTPRTPP-NH2], the “percent … with bound peptide” value turned out to be 55%.

For the molecule `CC[C@H](C)[C@H](NC(=O)[C@H](CC(N)=O)NC(=O)[C@H](CCCCN)NC(=O)[C@H](Cc1ccccc1)NC(=O)[C@H](Cc1ccccc1)NC(=O)[C@H](Cc1c[nH]cn1)NC(=O)[C@@H](NC(=O)[C@@H](NC(=O)[C@@H]1CCCN1C(=O)[C@H](CC(N)=O)NC(=O)[C@H](CCC(=O)O)NC(=O)[C@H](CC(=O)O)NC(=O)[C@H](CCCCN)NC(=O)CCCC[C@@H]1SC[C@@H]2NC(=O)N[C@@H]21)C(C)C)C(C)C)C(=O)N[C@H](C(=O)N[C@H](C(=O)N1CCC[C@H]1C(=O)N[C@@H](CCCNC(=N)N)C(=O)N[C@H](C(=O)N1CCC[C@H]1C(=O)N1CCC[C@H]1C(N)=O)[C@@H](C)O)[C@@H](C)O)C(C)C` [MBP(83-102)K83, Bt-KDENPVVHFF KNIVTPRTPP-NH2], the “percent … with bound peptide” value is 75%.

In the case of `CC[C@H](C)[C@H](NC(=O)[C@H](CC(N)=O)NC(=O)[C@H](CCCCN)NC(=O)[C@H](Cc1ccccc1)NC(=O)[C@H](Cc1ccccc1)NC(=O)[C@H](Cc1c[nH]cn1)NC(=O)[C@@H](NC(=O)[C@@H](NC(=O)[C@@H]1CCCN1C(=O)[C@H](CC(N)=O)NC(=O)[C@H](CCC(=O)O)NC(=O)[C@H](CC(=O)O)NC(=O)CCCC[C@@H]1SC[C@@H]2NC(=O)N[C@@H]21)C(C)C)C(C)C)C(=O)N[C@H](C(=O)N[C@H](C(=O)N1CCC[C@H]1C(=O)N[C@@H](CCCNC(=N)N)C(=O)N[C@H](C(=O)N1CCC[C@H]1C(=O)N1CCC[C@H]1C(N)=O)[C@@H](C)O)[C@@H](C)O)C(C)C` [MBP(84-102), Bt-DENPVVHFFK NIVTPRTPP-NH2, reference compound], the “percent … with bound peptide” value worked out at 45%.
